pIC50: −log10 of the molar value.
Tests used:
[1] = Inhibition of amyloid-beta (1 to 42) aggregation at 20 uM after 48 hrs by fluorescence analysis using thioflavin T
[2] = Ratio of IC50 for equine serum Butyrylcholinesterase to IC50 for electric eel Acetylcholinesterase
Acetylcholinesterase = Acetylcholinesterase (Electrophorus electricus, UniProt O42275); assay: Inhibition of electric eel Acetylcholinesterase
Butyrylcholinesterase = Butyrylcholinesterase (Equus caballus, UniProt Q9N1N9); assay: Inhibition of equine serum Butyrylcholinesterase
Sequence of Butyrylcholinesterase (Q9N1N9 whole entry): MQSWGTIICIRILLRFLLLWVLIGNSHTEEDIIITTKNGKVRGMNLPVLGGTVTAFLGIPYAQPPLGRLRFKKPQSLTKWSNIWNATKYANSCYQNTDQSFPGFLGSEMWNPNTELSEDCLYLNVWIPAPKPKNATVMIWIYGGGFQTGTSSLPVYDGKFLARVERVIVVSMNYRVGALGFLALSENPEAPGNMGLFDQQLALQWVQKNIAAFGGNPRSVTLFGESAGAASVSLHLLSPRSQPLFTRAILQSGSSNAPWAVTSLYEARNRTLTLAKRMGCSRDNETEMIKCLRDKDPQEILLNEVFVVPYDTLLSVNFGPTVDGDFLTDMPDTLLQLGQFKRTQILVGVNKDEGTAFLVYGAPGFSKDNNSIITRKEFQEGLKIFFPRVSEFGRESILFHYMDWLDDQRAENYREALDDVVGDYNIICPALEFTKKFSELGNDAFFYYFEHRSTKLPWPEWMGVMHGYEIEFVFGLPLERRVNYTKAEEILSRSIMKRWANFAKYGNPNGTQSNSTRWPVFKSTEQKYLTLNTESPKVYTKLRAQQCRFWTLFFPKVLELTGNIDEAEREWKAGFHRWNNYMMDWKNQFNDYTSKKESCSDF

Sequence of Acetylcholinesterase (O42275 whole entry): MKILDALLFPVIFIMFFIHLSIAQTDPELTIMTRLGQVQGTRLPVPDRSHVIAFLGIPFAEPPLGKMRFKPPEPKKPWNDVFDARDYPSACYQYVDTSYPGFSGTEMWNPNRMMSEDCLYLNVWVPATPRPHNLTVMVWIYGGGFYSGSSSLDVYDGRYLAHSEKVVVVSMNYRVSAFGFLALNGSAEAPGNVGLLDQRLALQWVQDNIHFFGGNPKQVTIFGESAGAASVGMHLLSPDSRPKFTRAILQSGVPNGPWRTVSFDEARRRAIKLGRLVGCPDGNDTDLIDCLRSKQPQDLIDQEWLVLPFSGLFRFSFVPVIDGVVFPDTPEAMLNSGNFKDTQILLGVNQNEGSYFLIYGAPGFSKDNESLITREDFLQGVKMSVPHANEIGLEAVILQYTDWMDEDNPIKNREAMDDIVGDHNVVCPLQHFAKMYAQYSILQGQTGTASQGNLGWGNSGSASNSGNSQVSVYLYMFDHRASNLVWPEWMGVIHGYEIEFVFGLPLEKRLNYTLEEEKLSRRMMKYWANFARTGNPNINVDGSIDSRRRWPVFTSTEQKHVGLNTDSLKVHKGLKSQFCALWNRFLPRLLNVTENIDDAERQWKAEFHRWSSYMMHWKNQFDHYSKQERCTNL

CCCCc1cn(CCCCOc2c(OC)ccc3cc4[n+](cc23)CCc2cc3c(cc2-4)OCO3)nn1
inhibition [1]: 77.9%
Ratio IC50 [2]: 10
pIC50 (Acetylcholinesterase): 6.70
pIC50 (Butyrylcholinesterase): 5.69

COc1ccc2cc3[n+](cc2c1OCCCn1cc(-c2ccccc2)nn1)CCc1cc2c(cc1-3)OCO2
Ratio IC50 [2]: 7.13
pIC50 (Acetylcholinesterase): 6.51
pIC50 (Butyrylcholinesterase): 5.66

CCCCc1cn(CCCOc2c(OC)ccc3cc4[n+](cc23)CCc2cc3c(cc2-4)OCO3)nn1
Ratio IC50 [2]: 24.6
pIC50 (Acetylcholinesterase): 6.78
pIC50 (Butyrylcholinesterase): 5.39

CCCN(CCC)c1cn(CCCOc2c(OC)ccc3cc4[n+](cc23)CCc2cc3c(cc2-4)OCO3)nn1
Ratio IC50 [2]: 11.3
pIC50 (Acetylcholinesterase): 6.85
pIC50 (Butyrylcholinesterase): 5.80

COc1ccc2cc3[n+](cc2c1OCCCCn1cc(-c2ccccc2)nn1)CCc1cc2c(cc1-3)OCO2
inhibition [1]: 60.6%
Ratio IC50 [2]: 1.14
pIC50 (Acetylcholinesterase): 5.88
pIC50 (Butyrylcholinesterase): 5.82

CCCCN(CCCC)c1cn(CCCOc2c(OC)ccc3cc4[n+](cc23)CCc2cc3c(cc2-4)OCO3)nn1
Ratio IC50 [2]: 8.48
pIC50 (Acetylcholinesterase): 6.61
pIC50 (Butyrylcholinesterase): 5.69

CCCCN(CCCC)c1cn(CCCCOc2c(OC)ccc3cc4[n+](cc23)CCc2cc3c(cc2-4)OCO3)nn1
inhibition [1]: 71.7%
Ratio IC50 [2]: 11.6
pIC50 (Acetylcholinesterase): 6.33
pIC50 (Butyrylcholinesterase): 5.26

COc1ccc2cc3[n+](cc2c1OC)CCc1cc2c(cc1-3)OCO2
inhibition [1]: 36.3%

CCCN(CCC)c1cn(CCCCOc2c(OC)ccc3cc4[n+](cc23)CCc2cc3c(cc2-4)OCO3)nn1
inhibition [1]: 62.5%
Ratio IC50 [2]: 17.7
pIC50 (Acetylcholinesterase): 6.57
pIC50 (Butyrylcholinesterase): 5.32
